Data reported in US12685725B2, “Pridopidine for the treatment of mitochondrial-associated diseases and disorders and endoplasmic reticulum (ER) stress” (PRILENIA NEUROTHERAPEUTICS LTD., priority 2019, dated 2026).
Like-named read-outs stand apart in the source and are kept apart here.

What was measured:
[1] = system: S1R-silenced HD lymphoblasts; details: 5 μM, 24 h
Protocol: S1R depletion was induced by treating with S1R-directed siRNA duplexes (Origene, cat no: SR426072). siRNA transfection was performed in antibiotic-free growth medium using the Polyplus JETPRIME transfection protocol as per manufacturer's instructions (Polyplus). Forty-eight hours after transfection the cells were subjected to pridopidine treatment and/or oxidative stress challenge. S1R knockdown efficiency was determined by Immunoblot analysis.
TMRE assay: Primary neurons and lymphoblasts in suspension were cultured in 6-well plates.

[2] = system: YAC128 cortical and striatal neurons; details: 24 h
Protocol: After basal reading for 10 minutes, neurons were stimulated with antimycin A (2 μM).

[3] = system: Nrf2/ARE genes (Nqo1, Hmox1, GCLc) in HD lymphoblasts; details: 5 μM, 24 h
Protocol: The qPCR was performed using the ABI Prism 7500 Sequence Detection System (Applied Biosystems). Each sample was run in triplicate. Gene expression was normalized to Rpl13a or UBC mRNA.

S1R in STHdh^Q7/7 cells [4] = system: S1R in STHdh^Q7/7 cells
Protocol: (§1) Transfections of HEK 293 cells were carried out according to the calcium phosphate method. STHdh^Q7/7 cells are a murine striatal cell line with a stable knock-in of the full-length wild type (WT) human Htt containing a polyglutamine stretch of 7 glutamines (Trettel et al. 2000). […] No cell line used is listed as a commonly misidentified cell line. Cell lines were not authenticated. To reduce any risk of cross-contamination they were grown for a limited number of passages. Transient transfections of NIH 3T3 and STHdh^Q7/7 cells were performed using an MP-100 Microporator (Digital Bio) or ViaFect™ Transfection Reagent (Cat.No. E4981) (Promega), according to the manufacturer's protocols.
(§2) Cells were lysed in PBS containing 1% Triton X-100, 0.5% sodium deoxycholate with protease inhibitors and centrifuged to pellet insoluble aggregates, debris and nuclei. Phosphatase inhibitor cocktail 2 and 3 and 10 mM […] phosphate were added to the lysis buffer to inhibit phosphatases for detection of phosphorylated proteins. Supernatants were separated from pellets and incubated in loading buffer for 5 min at 100° C., pellets were incubated for 10 min at 100° C. After SDS-PAGE and transfer to nitrocellulose membrane, blocking was done in 5% low-fat milk and 0.1% Tween-20 in PBS for 1 h. Incubation with the primary antibody was overnight at 4° C. and after three washes in 0.1% Tween-20 in PBS, incubation with the appropriate secondary antibody was for 1 h at room temperature. After washing, enhanced chemiluminescence assay was performed and the membrane was exposed and quantified in a Bio-Rad ChemiDocXRS Imaging System (Bio-Rad, Hercules, CA).
(§3) Briefly, cells grown for 24 h after transfection on coverslips in 24-well plates were fixed with 3% paraformaldehyde, followed by blocking with 50 mM glycine in PBS and normal goat IgG in PBS/2% BSA. The cells were incubated with primary antibodies for 1 h, washed and incubated for 30 min with secondary antibodies, followed by washes. Nuclei were stained with 4′,6-diamidino-2-phenylindole (Cat.No. F6057) (Sigma). Confocal microscopy was done on a Zeiss laser scanning confocal microscope (LSM 510; Carl Zeiss, Jena, Germany) as described previously. ImageJ was used to quantify fluorescence intensity in images of treated individual cells compared to untreated cells with and without Htt96Q-mCherry aggregates and to calculate Mander's coefficients for colocalization studies.

S1R in STHdh^Q7/7 cells [5] = molecular target: S1R in STHdh^Q7/7 cells (Mus musculus, UniProt O55242); details: 20 h; P (150 μM vs. 0)<0.05
Protocol: as §1, §2, §3

S1R in STHdh^Q7/7 cells (Mus musculus, UniProt O55242), sequence (O55242 whole entry): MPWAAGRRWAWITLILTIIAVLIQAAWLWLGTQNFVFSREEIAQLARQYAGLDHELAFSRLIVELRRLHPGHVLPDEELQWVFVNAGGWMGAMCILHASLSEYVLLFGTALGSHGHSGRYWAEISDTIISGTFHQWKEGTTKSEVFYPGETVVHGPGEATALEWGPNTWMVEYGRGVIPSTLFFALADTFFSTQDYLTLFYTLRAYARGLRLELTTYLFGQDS

CCCN1CCC(c2cccc(S(C)(=O)=O)c2)CC1 [Pridopidine, 4-[3-(methylsulfonyl)phenyl]-1-propyl-piperidine]
mitochondrial membrane potential signal after H2O2 stimulation ([1]; S1R+/+ cells): increases TMRM signal after H2O2 stimulation
effect on mitochondrial membrane potential ([1]; absence of the S1R (silenced ~83%), p<0.0001): abolished
mito-H2O2 levels prompted by Ant A ([2]; YAC128 cortical neurons, 1 μM, p<0.0001): reverts the increased levels of mito-H2O2 prompted by Ant A
mito-H2O2 levels prompted by Ant A ([2]; YAC128 striatal neurons, 0.1 μM, p=0.0005): reverts the increased levels of mito-H2O2 prompted by Ant A
mito-H2O2 levels prompted by Ant A ([2]; YAC128 striatal neurons, 1 μM, p<0.0001): reverts the increased levels of mito-H2O2 prompted by Ant A
GCLc expression (mRNA) [3]: shows a trend towards upregulation
expression of Nqo1 (mRNA) ([3]; p=0.0010): significantly upregulates
expression of Hmox1 (mRNA) ([3]; p=0.0308): significantly upregulates
Triton-insoluble levels of S1R-YFP (S1R in STHdh^Q7/7 cells [4]; 20 h, starting 4 h post-transfection): increases the Triton-insoluble levels of S1R-YFP
increase of S1R-YFP levels above the levels in the untreated cells (S1R in STHdh^Q7/7 cells [4]; in the presence of Htt96Q-mCherry, dose-dependent, up to 150 μM, 20 h): up to 47%
pattern (subcellular localization) of S1R-YFP (S1R in STHdh^Q7/7 cells [4]; treatment for 20 h): does not change the pattern of S1R-YFP
Triton-insoluble levels of endogenous S1R (S1R in STHdh^Q7/7 cells [5]): also those of the endogenous S1R
